# Legend:
# Assay in all cases: relative viability (nuclei count vs DMSO), 5 days (fraction); higher = more cells survive
# Carfilzomib + Lapatinib = compound: CC(C)C[C@H](NC(=O)[C@H](CCc1ccccc1)NC(=O)CN1CCOCC1)C(=O)N[C@@H](Cc1ccccc1)C(=O)N[C@@H](CC(C)C)C(=O)[C@@]1(C)CO1 [Carfilzomib] + CS(=O)(=O)CCNCc1ccc(-c2ccc3ncnc(Nc4ccc(OCc5cccc(F)c5)c(Cl)c4)c3c2)o1 [Lapatinib] (partner 2 µM)
# Summary of the method: (§1)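 Relative viability divides the nuclei count in treated wells by that in vehicle wells. Lung cancer cell lines were seeded in 1536-well plates, dosed by pin tool the next day, and fixed and stained after 5 days in one step with final 0.05% Triton X-100, 1% formaldehyde and 1 ug/ml Hoechst. Dosing was a single drug or a fixed anchor-drug dose plus five library-drug doses (not always all listed) in √10 steps, and values are medians of duplicate plates imaged at 4×.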
# Olaparib + Pictilisib = compound: O=C(c1cc(Cc2n[nH]c(=O)c3ccccc23)ccc1F)N1CCN(C(=O)C2CC2)CC1 [Olaparib] + CS(=O)(=O)N1CCN(Cc2cc3nc(-c4cccc5[nH]ncc45)nc(N4CCOCC4)c3s2)CC1 [Pictilisib] (partner 1 µM)
# Summary of the method: as §1
# Carfilzomib + Dasatinib = compound: CC(C)C[C@H](NC(=O)[C@H](CCc1ccccc1)NC(=O)CN1CCOCC1)C(=O)N[C@@H](Cc1ccccc1)C(=O)N[C@@H](CC(C)C)C(=O)[C@@]1(C)CO1 [Carfilzomib] + Cc1nc(Nc2ncc(C(=O)Nc3c(C)cccc3Cl)s2)cc(N2CCN(CCO)CC2)n1 [Dasatinib] (partner 0.075 µM)
# Summary of the method: as §1
# Crizotinib + Olaparib = compound: C[C@@H](Oc1cc(-c2cnn(C3CCNCC3)c2)cnc1N)c1c(Cl)ccc(F)c1Cl [Crizotinib] + O=C(c1cc(Cc2n[nH]c(=O)c3ccccc23)ccc1F)N1CCN(C(=O)C2CC2)CC1 [Olaparib] (partner 8 µM)
# Summary of the method: as §1
Cell Line,relative viability (Carfilzomib + Lapatinib; first compound 0.001 µM),relative viability (Carfilzomib + Lapatinib; first compound 0.003162 µM),relative viability (Carfilzomib + Lapatinib; first compound 0.01 µM),relative viability (Carfilzomib + Lapatinib; first compound 0.03162 µM),relative viability (Carfilzomib + Lapatinib; first compound 0.1 µM),relative viability (Olaparib + Pictilisib; first compound 0.08 µM),relative viability (Olaparib + Pictilisib; first compound 0.253 µM),relative viability (Olaparib + Pictilisib; first compound 2.53 µM),relative viability (Olaparib + Pictilisib; first compound 8 µM),relative viability (Carfilzomib + Dasatinib; first compound 0.001 µM),relative viability (Carfilzomib + Dasatinib; first compound 0.003162 µM),relative viability (Carfilzomib + Dasatinib; first compound 0.01 µM),relative viability (Carfilzomib + Dasatinib; first compound 0.03162 µM),relative viability (Carfilzomib + Dasatinib; first compound 0.1 µM),relative viability (Crizotinib + Olaparib; first compound 0.01 µM),relative viability (Crizotinib + Olaparib; first compound 0.03162 µM),relative viability (Crizotinib + Olaparib; first compound 0.1 µM),relative viability (Crizotinib + Olaparib; first compound 1 µM),relative viability (Crizotinib + Olaparib; first compound 0.3162 µM)
NCI-H23,1.01,1.09,0.723,0.171,0.142,0.684,0.365,0.397,0.292,0.811,0.748,0.845,0.158,0.125,0.317,0.271,0.317,0.388,–
NCI-H322M,0.477,0.641,0.611,0.651,0.4,0.507,0.522,0.521,0.485,0.272,0.264,0.255,0.271,0.232,–,0.839,0.746,0.777,0.658
NCI-H358,0.377,0.53,0.404,0.177,0.139,0.301,0.311,0.347,0.312,0.171,0.152,0.2,0.0675,0.0836,0.634,0.599,0.54,0.582,0.561
NCI-H460,0.954,1.18,0.955,0.0195,0.0166,0.404,0.319,0.342,0.27,0.539,0.529,0.568,0.538,0.0417,0.463,0.457,0.455,0.423,–
NCI-H520,0.89,1.1,0.622,0.148,0.143,0.318,0.315,0.278,0.236,0.204,0.17,0.168,0.188,0.213,0.285,0.35,0.408,0.349,0.301
NCI-H596,0.965,1.03,1.01,0.805,0.207,0.417,0.381,0.45,0.394,0.607,0.583,0.52,0.381,0.174,0.698,0.675,0.695,0.671,0.642
NCI-H647,0.974,1.17,0.428,0.0287,0.0319,0.66,–,0.486,0.515,0.198,0.21,0.149,0.0266,0.0232,0.444,0.68,0.564,0.597,0.505
NCI-H650,0.61,1.33,1.04,0.361,0.18,1.03,0.912,0.661,0.748,–,0.515,0.457,0.359,0.164,0.481,0.465,0.396,0.346,–
NCI-H661,0.548,0.836,0.533,0.507,0.191,0.431,0.399,0.439,0.386,0.911,1.07,1.03,0.72,0.172,0.703,0.761,0.741,0.737,0.81
NCI-H727,0.72,0.855,0.61,0.398,0.12,0.416,0.446,0.352,0.284,0.386,0.333,0.491,0.216,0.174,0.462,0.565,0.647,0.737,0.518
NCI-H838,0.889,1.33,1.05,0.2,0.119,0.452,0.439,0.519,0.408,0.321,0.333,0.291,0.267,0.182,0.712,0.763,0.78,0.726,0.712
NCI-H1355,0.872,1.08,1.08,0.941,0.168,0.537,0.397,0.408,0.444,0.628,0.785,0.686,0.382,0.264,0.714,0.715,0.797,0.728,0.622
NCI-H1395,0.897,1.55,0.841,0.318,0.311,0.78,0.639,0.575,0.534,0.411,0.426,0.417,0.36,0.314,0.458,0.452,0.5,0.428,0.487
NCI-H1437,0.78,0.931,0.832,0.431,0.139,0.373,0.395,0.501,0.381,0.28,0.483,0.419,0.257,0.133,0.625,0.608,0.627,0.66,0.651
NCI-H1650,–,0.781,0.264,0.165,0.154,0.866,0.523,0.572,0.647,0.282,0.304,0.207,0.165,0.172,0.619,0.801,0.71,0.722,0.779
NCI-H1651,0.696,0.742,0.16,0.113,0.101,0.62,0.562,0.599,0.331,0.361,0.295,0.266,0.104,0.0779,0.183,0.2,0.185,0.194,0.173

# — the supplement of paper PMC10307832
